Laboratory results taken from article PMC10257182, “Discovery of senolytics using machine learning” (Nature Communications, 2023).
Like-named read-outs stand apart in the source and are kept apart here.

Experiments:
Format in all cases: cell-based, human
[1] = tested on: non-senescent control IMR90 ER:RAS cells; assay: Nuclei count (Hoechst, high content imaging) senolytic assay, OIS model, non-senescent control cells; conditions: Homo sapiens; for viability at 4.677 µM: log (dose) [M] -5.33, 72 h; for viability at 2.188 µM: log (dose) [M] -5.66, 72 h; for viability at 1 µM: log (dose) [M] -6, 72 h; for viability at 2.19 µM: log (dose) [M] -5.66
Summary of the method: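 Senescence in IMR90 ER:RAS fibroblasts induced with 100 nM 4-OHT; non-senescent and senescent cells treated 72 h with compounds, 10-point […] range 10 μM–10 nM, triplicate. Cells fixed, permeabilised, Hoechst-stained; total nuclei per well counted by high-content imaging versus untreated controls as cell-death readout.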

[2] = tested on: senescent A549 cells (etoposide-induced); assay: Nuclei count senolytic assay, therapy-induced senescence (TIS) model, senescent cells; conditions: Homo sapiens, A549, Senescent cells, mean, read-out: Mean % Cell Survival; for viability at 10 µM: log (dose) [M] -5; for viability at 4.68 µM: log (dose) [M] -5.33; for viability at 2.19 µM: log (dose) [M] -5.66; for viability at 1 µM: log (dose) [M] -6; for viability at 0.468 µM: log (dose) [M] -6.33; for viability at 0.219 µM: log (dose) [M] -6.66; for viability at 0.1 µM: log (dose) [M] -7; for viability at 0.0468 µM: log (dose) [M] -7.33; for viability at 0.0219 µM: log (dose) [M] -7.66; for viability at 0.01 µM: log (dose) [M] -8
Summary of the method: (§1)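 A549 cells were made senescent with 100 μM etoposide for 48 h, then kept three days in normal media; non-senescent A549 served as controls. Compounds were dosed as a 10-point […] series (10 μM to 10 nM final) for 72 h in triplicate. Hoechst-stained nuclei were counted by imaging after fixation.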

[3] = tested on: non-senescent control A549 cells; assay: Nuclei count senolytic assay, TIS model, non-senescent control cells; conditions: Homo sapiens, A549, Control cells, mean, read-out: Mean % Cell Survival; for viability at 10 µM: log (dose) [M] -5; for viability at 4.68 µM: log (dose) [M] -5.33; for viability at 2.19 µM: log (dose) [M] -5.66; for viability at 1 µM: log (dose) [M] -6; for viability at 0.468 µM: log (dose) [M] -6.33; for viability at 0.219 µM: log (dose) [M] -6.66; for viability at 0.1 µM: log (dose) [M] -7; for viability at 0.0468 µM: log (dose) [M] -7.33; for viability at 0.0219 µM: log (dose) [M] -7.66; for viability at 0.01 µM: log (dose) [M] -8
Summary of the method: as §1

[4] = IMR-90, 72 h, Control, log (dose) [M] -5, 72 h, mean n=3 (Fig 3C), read-out: Mean % Cell Survival
[5] = IMR-90, 72 h, Control, mean n=3 (Fig 3C), read-out: Mean % Cell Survival
[6] = IMR-90, 72 h, Control, log (dose) [M] -6.33, 72 h, mean n=3 (Fig 3C), read-out: Mean % Cell Survival
[7] = IMR-90, 72 h, Control, log (dose) [M] -6.66, 72 h, mean n=3 (Fig 3C), read-out: Mean % Cell Survival
[8] = IMR-90, 72 h, Control, log (dose) [M] -7, 72 h, mean n=3 (Fig 3C), read-out: Mean % Cell Survival
[9] = IMR-90, 72 h, Control, log (dose) [M] -7.33, 72 h, mean n=3 (Fig 3C), read-out: Mean % Cell Survival
[10] = IMR-90, 72 h, Control, log (dose) [M] -7.66, 72 h, mean n=3 (Fig 3C), read-out: Mean % Cell Survival
[11] = IMR-90, 72 h, Control, log (dose) [M] -8, 72 h, mean n=3 (Fig 3C), read-out: Mean % Cell Survival
[12] = IMR-90, Control, read-out: % Cell Survival

SMILES	viability at 10 µM [1, 4]	viability at 4.677 µM [1, 5]	viability at 2.188 µM [1, 5]	viability at 1 µM [1, 5]	viability at 0.4677 µM [1, 6]	viability at 0.2188 µM [1, 7]	viability at 0.1 µM [1, 8]	viability at 0.04677 µM [1, 9]	viability at 0.02188 µM [1, 10]	viability at 0.01 µM [1, 11]	viability at 2.19 µM [1, 12]	viability at 10 µM [2]	viability at 4.68 µM [2]	viability at 2.19 µM [2]	viability at 1 µM [2]	viability at 0.468 µM [2]	viability at 0.219 µM [2]	viability at 0.1 µM [2]	viability at 0.0468 µM [2]	viability at 0.0219 µM [2]	further results
CO[C@H]1C[C@@H]2CC[C@@H](C)[C@@](O)(O2)C(=O)C(=O)N2CCCC[C@H]2C(=O)O[C@H]([C@H](C)C[C@@H]2CC[C@@H](O)[C@H](OC)C2)CC(=O)[C@H](C)/C=C(\C)[C@@H](O)[C@@H](OC)C(=O)[C@H](C)C[C@H](C)/C=C/C=C/C=C/1C [Rapamycin, rapamycin, reference compound]	98.8%	100%	89.2%	83.1%	85.7%	86.6%	92.6%	86.3%	95.8%	100%	80.5%	212%	215%	208%	228%	246%	228%	250%	249%	69.5%	viability at 10 µM ([1]; IMR-90, Control cells, log (dose) [M] -5, individual replicates, SUP FIG 4C, read-out: % Cell Survival): 91.9%; viability at 0.4677 µM ([1]; IMR-90, Control cells, log (dose) [M] -6.33, individual replicates, SUP FIG 4C, read-out: % Cell Survival): 77.2%; viability at 0.2188 µM ([1]; IMR-90, Control cells, log (dose) [M] -6.66, individual replicates, SUP FIG 4C, read-out: % Cell Survival): 83%; viability at 0.1 µM ([1]; IMR-90, Control cells, log (dose) [M] -7, individual replicates, SUP FIG 4C, read-out: % Cell Survival): 91%; viability at 0.04677 µM ([1]; IMR-90, Control cells, log (dose) [M] -7.33, individual replicates, SUP FIG 4C, read-out: % Cell Survival): 89.7%; viability at 0.02188 µM ([1]; IMR-90, Control cells, log (dose) [M] -7.66, individual replicates, SUP FIG 4C, read-out: % Cell Survival): 93%; viability at 0.01 µM ([1]; IMR-90, Control cells, log (dose) [M] -8, individual replicates, SUP FIG 4C, read-out: % Cell Survival): 109%; viability at 0.01 µM [2]: 93.7%; viability at 10 µM [3]: 74.6%; viability at 4.68 µM [3]: 60.2%; viability at 2.19 µM [3]: 54%; viability at 1 µM [3]: 104%; viability at 0.468 µM [3]: 117%; viability at 0.219 µM [3]: 122%; viability at 0.1 µM [3]: 128%; viability at 0.0468 µM [3]: 102%; viability at 0.0219 µM [3]: 117%; viability at 0.01 µM [3]: 116%
CO[C@H]1C[C@@H]2CC[C@@H](C)[C@@](O)(O2)C(=O)C(=O)N2CCCC[C@H]2C(=O)O[C@H]([C@H](C)C[C@@H]2CC[C@@H](OP(C)(C)=O)[C@H](OC)C2)CC(=O)[C@H](C)/C=C(\C)[C@@H](O)[C@@H](OC)C(=O)[C@H](C)C[C@H](C)/C=C/C=C/C=C/1C [Ridaforolimus, ridaforolimus, reference compound]	75.2%	82.6%	82.3%	77.9%	87.6%	91.5%	77.4%	106%	88.9%	92.5%	107%	162%	174%	157%	66.9%	113%	102%	60.6%	60.9%	84.7%	viability at 10 µM ([1]; IMR-90, Control, log (dose) [M] -5, read-out: % Cell Survival): 119%; viability at 0.468 µM ([1]; IMR-90, Control, log (dose) [M] -6.33, read-out: % Cell Survival): 105%; viability at 0.219 µM ([1]; IMR-90, Control, log (dose) [M] -6.66, read-out: % Cell Survival): 109%; viability at 0.1 µM ([1]; IMR-90, Control, log (dose) [M] -7, read-out: % Cell Survival): 97%; viability at 0.04677 µM ([1]; IMR-90, Control, log (dose) [M] -7.33, read-out: % Cell Survival): 115%; viability at 0.0219 µM ([1]; IMR-90, Control, log (dose) [M] -7.66, read-out: % Cell Survival): 113%; viability at 0.01 µM ([1]; IMR-90, Control, log (dose) [M] -8, read-out: % Cell Survival): 113%; viability at 0.01 µM [2]: 87.1%; viability at 10 µM [3]: 110%; viability at 4.68 µM [3]: 121%; viability at 2.19 µM [3]: 69%; viability at 1 µM [3]: 65.1%; viability at 0.468 µM [3]: 96%; viability at 0.219 µM [3]: 102%; viability at 0.1 µM [3]: 97.4%; viability at 0.0468 µM [3]: 108%; viability at 0.0219 µM [3]: 74.4%; viability at 0.01 µM [3]: 107%
